According to ChEMBL document CHEMBL2040776, “Docking, synthesis and pharmacological activity of novel urea-derivatives designed as p38 MAPK inhibitors” (Eur J Med Chem, 2012):
Calls of active or inactive are those of the source. The rule behind the calls is not given here.

Key:
[1] = Cytotoxicity against BALB/c mouse peritoneal macrophages after 20 hrs by MTT assay; type: cell-based; details: Peritoneal macrophage cell
Rattus norvegicus [2] = assay: Antihypernociceptive activity in Wistar rat assessed as inhibition of capsaicin-induced thermal hypernociception by measuring paw withdrawal latency at 100 umol/kg, po administered 1 hr before capsaicin challenge measured after 10 mins; type: functional, organism-based
[3] = Antiinflammatory activity in BALB/c mouse peritoneal macrophages assessed as inhibition of LPS-induced TNFalpha production at 100 uM treated 1 hr before LPS challenge measured after 24 hrs by ELISA; type: functional; details: Peritoneal macrophage cell
[4] = Antiinflammatory activity in BALB/c mouse peritoneal macrophages assessed as inhibition of LPS-induced TNFalpha production treated 1 hr before LPS challenge measured after 24 hrs by ELISA; type: functional, cell-based; details: Peritoneal macrophage cell
Mus musculus = assay: Antihypernociceptive activity in po dosed BALB/c mouse methylated bovine serum albumin-induced arthritis model assessed as paw withdrawal latency administered 30 mins before mBSA challenge followed by second dose after 7 hrs by electronic Von Frey method; type: functional, organism-based
Rattus norvegicus [5] = assay: Antiinflammatory activity in Wistar rat assessed as inhibition of carrageenan-induced paw oedema at 100 umol/kg, po after 1 hr; type: functional, organism-based
Rattus norvegicus [6] = assay: Antiinflammatory activity in Wistar rat assessed as inhibition of carrageenan-induced paw oedema at 100 umol/kg, po after 3 hrs; type: functional, organism-based
MAP kinase p38 = MAP kinase p38 (Mus musculus, UniProt P47811+O08911+Q9WUI1+Q9Z1B7); assay: Inhibition of LPS-induced p38 MAPK activation in BALB/c mouse peritoneal macrophages

| SMILES | IC50 [1] | inhibition (Rattus norvegicus [2]) | IC50 [4] | other results |
| --- | --- | --- | --- | --- |
| CCOC(=O)c1cc2cc3c(cc2nc1NC(=O)Nc1ccccc1)OCO3 | 42.7 µM |  |  |  |
| CCOC(=O)c1cc2cc3c(cc2nc1NC(=O)Nc1ccc([N+](=O)[O-])cc1)OCO3 |  | Active |  |  |
| CCOC(=O)c1cc2cc3c(cc2nc1NC(=O)NC1CCCCC1)OCO3 | 46.7 µM | Active | 55 µM | inhibition at 100 µM [3]: 50%; Activity (Mus musculus): Dose-dependent effect; inhibition (Rattus norvegicus [5]): Active; inhibition (Rattus norvegicus [6]): Active; IC50 (MAP kinase p38): 14 µM |
| C[S+]([O-])c1ccc(-c2nc(-c3ccc(F)cc3)c(-c3ccncc3)[nH]2)cc1 (stereo not drawn) [SB-203580] |  | Active | 0.22 µM |  |
| CCOC(=O)c1cc2cc3c(cc2nc1NC(=O)Nc1ccc(Br)cc1)OCO3 |  | Active |  |  |
